Experimental findings from patent publication US20060252798A1, “Metal ion chelators and therapeutic use thereof” (priority 2003, published 2006) are described below.

In data set [1] the test system is SK-N-MC neuroepithelioma cells. The data set is described as follows: 3H-uridine incorporation by SK-N-MC cells. The format is cell-based, human. As to conditions: 20 h incubation then 2 h label; Mean ± SD, 3 experiments. The protocol:
(§1) After a 20 h incubation of the SK-N-MC cells with a selection of analogues, ^3H-thymidine, ^3H-leucine, or ^3H-uridine (1 μCi/ml) was added for 2 h at 37° C. The cells were detached from the 96 well plate using 1 mM EDTA in Ca(II)/Mg(II)-free PBS and collected and washed using a cell harvester (Tomtec Harvester 96, Linbrook, Queensland, Australia). Radioactivity was measured on a P-scintillation counter (LKB Wallace, Turku, Finland).

Data set [2] deals with SK-N-MC neuroepithelioma cells. The experiment in a line: 3H-leucine incorporation by SK-N-MC cells. The format is cell-based, human. As to conditions: 20 h incubation then 2 h label; Mean ± SD, 4 experiments. The procedure:
as §1

The subject of data set [3] is caspase-9. The data set is described as follows: Caspase-9 activity in M109 cells (BD Apolert Caspase Assay Plate). Conditions: 1 μM. The format is cell-based, mouse. The procedure: (§2) Cultured M109 cells were treated with or without Dp44mT (1 μM) for 0-48 h at 37° C. Cells were lysed^27 and caspase activities were determined using the BD Apolert™ Caspase Assay Plate (BD Biosciences, San Diego, Calif., USA). Cell-permeable pan-caspase-3, -8, and -9 inhibitors (BD Biosciences) were included as inhibitory controls.

Data set [4] has as its system caspase-8. The experiment in a line: Caspase-8 activity in M109 cells (BD Apolert Caspase Assay Plate). The format is cell-based, mouse. As to conditions: 1 μM. The procedure:
as §2

The test system of data set [5] is M109 cells. The experiment in a line: Apoptosis assay by flow cytometry (Annexin V-FITC / PI), cultured M109 cells. The format is cell-based, mouse. The protocol:
Apoptotic cells were detected by a flow cytometer (FACSCalibur, Becton Dickinson, Calif., USA) using fluorescein isothiocyanate (FITC) labelled Annexin V binding to translocated plasma membrane phosphatidylserine (PS).^25 Propidium iodide (PI) was added to identify loss of cell membrane integrity, which is indicative of necrotic cells.
There was a dose-dependent increase in the percentage of apoptotic and dead cells after Dp44mT treatment (FIG. 13A). Exposure of cells to 1 μM Dp44mT caused a significant (p<0.05) increase of apoptotic and dead cells. This increase peaked at a Dp44mT concentration of 100 μM resulting in a population consisting of 40±7% apoptotic cells and 27±3% dead cells (FIG. 13A).
(A flow cytometer gives signals particle by particle.)

For data set [6], the system named is Bax. The data set is described as follows: Bax protein level in M109 cells. The format is cell-based, mouse. As to conditions: 1 μM, 48 h. The protocol:
(§3) Considering the roles of Bcl-2 and Bax in the mitochondrial pathway of apoptosis and their role in h-cytc release, ^8,11,12 the effect of Dp44mT (1 μM) on the protein levels of these molecules was assessed (FIG. 15B).

Data set [7] can be described thus: Maximum tolerated dose in CD2F1 hybrid mice. The format is in vivo. As to conditions: CD2F1 mice, iv twice a day. The procedure: BALB/c and DBA/2 mice were obtained from Animal Resources Centre (University of New South Wales (UNSW), Sydney, Australia) and crossed to produce CD2F1 animals (all procedures used were approved by the Animal Ethics Committee, UNSW). Groups of eight female CD2F1 mice (8-10 weeks old) were fed and watered ad-libitum, and injected via the tail vein with compounds being studied in 30% propylene glycol in 0.9% sterile saline, twice a day, 6 h apart, 5 days/week for 2 weeks. The maximum tolerated dose (MTD) was defined as the dose at which 30% of a cohort either died or lost weight in excess of 10%.^19

Data set [8] is described as follows: Mouse weight loss and haematological indices in M109-bearing mice. The format is in vivo. Conditions: Mean ± SEM. The protocol:
The tumour cells were passaged in CD2F1 mice by preparing a brei from the tumour and injecting it sc.^20 Dp44mT was dissolved in 30% (v/v) propylene glycol in saline and injected iv 4 days after tumour engraftment, twice daily for 5 days followed by a “rest period” of 2 days when the animal was not injected. On the twelfth day after tumour implantation, mice were sacrificed using methoxyfluorane and cardiac puncture performed. Blood counts and erythrocyte indices were measured using a Sysmex Blood Counter (Prince of Wales Hospital, Sydney, Australia). Mouse body weight changes during the treatment period were recorded. The tumours were weighed and fixed for histological examination. The experimental groups consisted of eight mice for the control and each treatment (Table 5).

In data set [9] the test system is Bcl-2. The experiment in a line: Mitochondrial Bcl-2 protein level in M109 cells. The format is cell-based, mouse. Conditions: 1 μM. The protocol: as §3
Data set [10] deals with M109 lung carcinoma. The data set is described as follows: Inhibition of M109 lung carcinoma growth in vivo. Also noted: species or system mouse. Conditions: 0.4 mg/kg iv twice daily for 5 days, day 12. The procedure: Inhibition of M109 Lung Cancer Cell Growth by Iron Chelators In Vivo Female CD2F1 mice aged 8-10 weeks old were sc implanted with 1×10^5 M109 cells. The tumour cells were passaged in CD2F1 mice by preparing a brei from the tumour and injecting it sc.^20 Dp44mT was dissolved in 30% (v/v) propylene glycol in saline and injected iv 4 days after tumour engraftment, twice daily for 5 days followed by a “rest period” of 2 days when the animal was not injected. On the twelfth day after tumour implantation, mice were sacrificed using methoxyfluorane and cardiac puncture performed. Blood counts and erythrocyte indices were measured using a Sysmex Blood Counter (Prince of Wales Hospital, Sydney, Australia). Mouse body weight changes during the treatment period were recorded. The tumours were weighed and fixed for histological examination. The experimental groups consisted of eight mice for the control and each treatment (Table 5).
As a relevant positive control, animals were administered Triapine® at its MTD (6 mg/kg). The tumour weight was measured on the twelfth day after the tumour cell implantation.

Turning to `CC(=O)N(O)CCCCCNC(=O)CCC(=O)N(O)CCCCCNC(=O)CCC(=O)N(O)CCCCCN` [DFO, desferrioxamine], the “3H-Uridine Incorporation” value in [1] is 34 ± 5 % Control. Also, in data set [2], the “3H-Leucine Incorporation” value was 9 ± 1 % Control.

As to `CN(C)C(=S)NN=C(c1ccccn1)c1ccccn1` [Dp44mT, di-2-pyridylketone 4,4-dimethyl-3-thiosemicarbazone], the caspase-9 activity in data set [3] (12 h) was 354 % of the control. For the same compound, the “caspase-9 activity (plateau)” value in [3] (after 24 h) is 400-600 % of the control. In addition, in data set [4] (12 h), the caspase-8 activity is 299 % of the control. Moreover, in data set [4] (after 24 h), the “caspase-8 activity (plateau)” value is on record as 400-600 % of the control. For the same compound, in data set [5] (1 μM, 12 h), the apoptotic cells was 12±2%. Also, in data set [5] (100 μM, 24 h), the apoptotic cells came to 40±7% and the dead cells was determined as 27±3%. Further, in data set [5] (250 μM, 24 h), the apoptotic cell numbers is recorded as 20±2% and the dead cell population came to 42±6%. Further, in data set [6], the Bax expression is 500 % of that found at the 0 h time point. The “maximum tolerated dose (MTD)” value in data set [7] is 0.4 mg/kg. Moreover, in data set [8] (Dp44mT 0.3 mg/kg), the Body weight loss is given as 1.3 ± 0.3 g, the Haematocrit is 0.40 ± 0.03, the Haemoglobin turned out to be 13.3 ± 0.5 g/dL and the Platelets was 1019 ± 87 10^9/L. Moreover, in data set [8] (Dp44mT 0.3 mg/kg), the RBC was 8.9 ± 0.4 10^12/L and the WBC is given as 4.2 ± 0.4 10^9/L. In data set [8] (Dp44mT 0.4 mg/kg), the Body weight loss was 1.1 ± 0.2 g, the Haematocrit turned out to be 0.40 ± 0.01, the Haemoglobin is on record as 11.8 ± 0.8 g/dL and the Platelets was 636 ± 88 10^9/L. Further, in [8] (Dp44mT 0.4 mg/kg), the RBC is listed as 8.0 ± 0.6 10^12/L and the WBC was 3.9 ± 0.6 10^9/L. For the same compound, in data set [9] (2 h), the Bcl-2 protein level was 69 % of the 0 h time point. For the same compound, the Bcl-2 protein level in data set [9] (48 h) is on record as 37 % of the 0 h time point. In addition, in [10], the tumour weight is given as 47 % of control.
